Source: patent publication US20240299334A1, “PHARMACEUTICAL COMPOSITION OF NAPHTHALENE DERIVATIVES AS MULTI-TARGETED THERAPEUTIC AGENTS FOR THE TREATMENT OF ALZHEIMER'S DISEASE” (CENTRO DE NEUROCIENCIAS DE CUBA, CNEURO, priority 2020, published 2024)

What was measured:
AChE = target: T1, AChE (Mus musculus, UniProt P21836); assay: AChE activity ex vivo in brain homogenates (Ellman), acute ESC model; parameters: species or system mice; conditions: soluble fraction of brain homogenates, vs ESC group, 3 p<0.05, donepezil p<0.01
T1 construct: the resulting clear supernatants were used as enzyme sources; from tissue; host or cells: mouse whole brain, supernatant of the homogenate (10,000 x G)
T1 sequence (P21836 32-614): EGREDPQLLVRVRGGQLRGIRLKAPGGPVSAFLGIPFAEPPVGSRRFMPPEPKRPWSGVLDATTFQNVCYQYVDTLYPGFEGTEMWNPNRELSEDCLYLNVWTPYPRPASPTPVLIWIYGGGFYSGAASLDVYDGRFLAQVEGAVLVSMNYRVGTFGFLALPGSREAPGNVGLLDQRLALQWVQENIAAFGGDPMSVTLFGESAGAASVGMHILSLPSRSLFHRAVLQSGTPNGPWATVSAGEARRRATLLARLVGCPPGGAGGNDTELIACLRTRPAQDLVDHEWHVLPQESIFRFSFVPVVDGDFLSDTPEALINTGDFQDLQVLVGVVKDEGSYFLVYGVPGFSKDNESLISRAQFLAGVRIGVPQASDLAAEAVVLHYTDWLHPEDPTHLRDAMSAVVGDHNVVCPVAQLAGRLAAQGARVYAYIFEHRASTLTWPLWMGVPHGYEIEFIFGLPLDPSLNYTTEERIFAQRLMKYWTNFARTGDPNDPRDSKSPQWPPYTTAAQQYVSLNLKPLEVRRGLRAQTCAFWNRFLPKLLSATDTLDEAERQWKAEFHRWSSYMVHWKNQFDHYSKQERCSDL
Procedure: Briefly the procedure was as follows; at the end of the behavioral experiments, the mice were anesthetized and decapitated to quickly remove the brains, which were placed on an ice-cold plate. They were weighed and homogenized (1/10, w/v) in cold 10 mmol/L Tris-HCl buffer, pH 7.2, containing 160 mmol/L sucrose. The homogenates were centrifuged at 10,000×G for 10 minutes at 4° C., and the resulting clear supernatants were used as enzyme sources, which were aliquoted (n=10 per group) and stored at −20° C. The assay was performed in 96-well microtiter plates using Ellman's reagent (DTNB 10 mmol/L), 50 μL homogenate and 10 μL Acetylcholine iodide (AChl, 20 mmol/L) (final volume 200 μL). The absorbance of the yellow hydrolyzate of the 5-thio-2-nitrobenzoic acid dianion (molar extinction coefficient: 13 700 mol/L^−1 cm^−1), was measured at 412 nm, for 20 minutes with an interval of 1 minute. AChE activity was performed in triplicate and was expressed in nmol of hydrolyzed Achl per minute per mg of protein.
All data are expressed as the mean±standard error of the mean (SEM). The comparison of the cholinesterase activity values was carried out by means of a one-way analysis of variance, followed by the Turkey post-hoc test. Statistical analysis was performed using GraphPadPrism version 5 (GraphPad Software, Inc., San Diego, USA).

[1] = system: seizures induced by icv administration of kainic acid; assay: Seizures induced by icv administration of kainic acid (Racine scale); assay type: in vivo, mice; conditions: compound 3 5 and 50 mg/kg oral, 1 h before KA icv; effect greater with 50 mg/kg
Procedure: Young male OF-1 mice (20-25 g), supplied by the National Center for the Laboratory Animals Production (CENPALAB, Cuba) were used. The conditions of adaptation and maintenance of the animals before carrying out the experiment were similar to those developed in non-limiting Example 2. The mice were divided into 5 experimental groups (7 animals group) distributed in: a control group (PBS 2 μL, icv), a seizure control group (KA 2 μL, icv) and three groups treated orally by gastric cannulation with compound 3 at doses of 1, 5, 50 mg/kg […] and KA 2 μL, icv. Compound 3 was prepared as a suspension in 5% carboxymethylcellulose (CMC) vehicle. […]
For the icv administration of KA the mice were anesthetized with 685.71 mg/kg with chloral hydrate i.p. and placed on a dual manipulator. […] Stereotaxic coordinates for the lateral ventricle were precisely measured as: anteroposterior […], lateral±[…] and dorsoventral […] relative to bregma and ventral dura with the tooth bar at […]. A burr hole was made in the skull by automatic microperforation attached to an arm of the stereotaxic apparatus. […]
Statistical Analysis All data are expressed as the mean±standard error of the mean (SEM), and were analyzed using a one-way analysis of variance followed by Turkey's post-hoc test. […]

[2] = system: memory loss induced with the chronic use of scopolamine; assay: Morris water maze, chronic ESC model; assay type: in vivo, mice
Procedure: Male C57BL/6 mice (20-25 g), supplied by the National Center for the Laboratory Animals Production (CENPALAB, Cuba) were used. During the experiment, the animals received adlibitum water and standard diet supplied by CENPALAB. All procedures were carried out in accordance with the European Commission guidelines for the use and care of laboratory animals and approved by the Committee for the Research Animals Care. The minimum number of animals and duration of observations required to obtain consistent data was used.
At the end of the adaptation period, the animals were randomly distributed according to their body weights in five experimental groups of 12 animals each. For the induction of cognitive deficit, ESC (Sigma Aldrich) was used, which was dissolved in physiological saline and administered daily intraperitoneally (ip) at a dose of 1.5 mg/kg for 2 weeks, in the morning (Park J H, et al. In J Mol Neurosci. 2016; 59 (4): 579-589). Compound 3 was prepared as a suspension, in 0.5% soluble starch (Merck Millipore), and administered orally by intragastric cannula at a daily dose of 0.1, 1, 10 mg/kg of body weight […]. The experimental groups were: […]
Morris Water Maze (MWM): Analogous to Example 2, the two-day MWM test was used to determine long-term spatial memory. […] In this way, long-term spatial memory was determined by the quotient of the escape latency values D2T1/D1V6. […]

SH-SY5Y cells = assay: Neuroprotection against glutamate-induced excitotoxic damage (MTT); conditions: 7.5 and 15 μmol/L; 24 h pre-treatment, then 60 mmol/L glutamate 24 h; p<0.05
Procedure: In addition, gentamicin (100 μg/mL) was added, then called complete medium (CM). […] The medium was changed every two days and the cells were subcultured every five days by trypsinization at a density of 4-5×10^6 cells/75 cm^2 flask for experimental work and/or subculture of a new generation of cells for later use.
Once the cell density was known, they were seeded in a 96-well culture plate (200 μL in each well) at a concentration of 80×10^4 cells/well.
Cell viability. MTT assays: Cell viability was measured through formazan blue products obtained from the enzymatic transformation of MTT (3-(4,5-dimethyl-2-thiazolyl)-2,5-diphenyl-2Htetrazoliumbromide) by mitochondrial dehydrogenases, which are active only in viable cells. […] Then 100 μL of isobutylalcohol (SDS 10%, 2-butanol 50%, 0.25 μL HCl 2 mmol/L) was added to each well to solubilize the formazan crystals, and the optical density of each well was measured before 30 minutes at 570 nm in a Clariostar spectrophotometer (BMG Labtech). The correction of the OD values was carried out at 690 nm. Three replications were carried out for each experiment. The results were expressed as the percentage of optical density of each experimental variant in relation to the Optical density obtained for the group of cells not treated with glutamate.

CSC(=S)NCCNC(=O)CCC(=O)Nc1cccc2ccccc12 [compound 3, methyl(2-{[4-(1-naphthylamino)-4-oxobutanoyl]amino}ethyl)dithiocarbamate]
AChE activity ex vivo (AChE): significantly reduced
total seizure score (0-120 minutes) [1]: significant decrease in the total score
maximum effect dose ([2]; MWM, chronic ESC model): 1 mg/kg
ratio of first escape latency with hidden platform (T7) and last test with visible platform (T6) ([2]; compound 3 1 and 10 mg/kg oral daily, ESC 1.5 mg/kg daily, 2 weeks): significantly decreased compared to the ESC group
neuronal death generated by glutamate (MTT viability) (SH-SY5Y cells): significantly decreased
